Tests used:
[1] = biological target: T1, DAN-eENTH: epsin 1 ENTH domain variant M10C/C96A/S4W, SEQ ID NO: 2, labeled with DAN at C10 (Homo sapiens, UniProt Q9Y6I3, C96A/M10C/S4W); experiment: Spectrofluorometry of DAN-eENTH binding to PtdIns(4,5)P2-containing LUVs
T1 construct: The Epsin1 ENTH domain (1-158 amino acids) was subcloned; GST (C, cleaved yes); made in house; host or cells: E. coli BL21 RIL codon plus
T1 sequence (Q9Y6I3 1-158 S4W/M10C/C96A): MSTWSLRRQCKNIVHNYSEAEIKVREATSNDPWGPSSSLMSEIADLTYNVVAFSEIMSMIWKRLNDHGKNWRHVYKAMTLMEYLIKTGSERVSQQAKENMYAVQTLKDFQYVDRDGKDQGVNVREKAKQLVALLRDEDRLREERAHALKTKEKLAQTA
Experimental: To check the feasibility of PtdIns(4,5)P2 quantification using our sensor, the change in fluorescence emission of DAN-eENTH upon membrane binding was measured by spectrofluorometry.
The theoretic curve was then constructed using these parameters.
Hitachi F-4500 spectrofluorometer was used for all cuvette-based fluorescence measurements. DAN-eENTH (typically 500 nM) was added to POPC/POPS/PtdIns(4,5)P2 (80-x:20:x) (x=0-3 mol %) LUV and the emission spectra of DAN were measured with excitation wavelength set at 392 nm. The same measurements were repeated with LUVs made of different phosphoinositides, e.g., POPC/POPS/PtdIns(3,4,5)P3 (77:20:3).

[2] = biological target: T1, DAN-eENTH: epsin 1 ENTH domain variant M10C/C96A/S4W, SEQ ID NO: 2, labeled with DAN at C10; experiment: SPR equilibrium binding of DAN-eENTH to phosphoinositide-containing LUVs
Text: Provided herein is an ENTH domain of epsin1, which is linked to 2-dimethylamino-6-acyl-naphthalene (DAN). The ENTH domain contains 3 mutations, which are substitutions: M10C, C96A, and S4W. See SEQ ID NO:2. This DAN-eENTH (M10C, C96A, S4W) is an exceptional, high-affinity phosphatidylinositol-4,5-bisphosphate (PtdIns(4,5)P2)-binding protein.
(§1) The ENTH domain was engineered to introduce a single labeling site (M10C) on the membrane binding surface while removing an endogenous Cys (C96A). We also performed the S4W mutation to suppress its residual affinity for another lipid, phosphatidylinositol-3,4,5-trisphosphate (PtdIns(3,4,5)P3) (PtdIns(4,5)P2/PtdIns(3,4,5)P3=4 for wild type and >10 for the mutant) and to enhance the overall affinity for PtdIns(4,5)P2-containing membranes (ca. 4-fold) (Table 1).
(§2) With respect to FIG. 1, an L1 sensor chip was coated with POPC/POPS/PtdIns(4,5)P2 (77:20:3) LUVs. The proteins were incubated with a given concentration of IP3 for 5 minutes before injecting into the SPR instrument. Kinetic SPR measurements were performed in 20 mM Tris-HCL, pH 7.4, containing 0.16 KCl. […] A lower concentration of DAN-eENTH was used than that of PLCδ PH because the former has much higher affinity that the latter.
All mutations (S4W, M10C, and C96A) were performed by polymerase chain reaction mutagenesis and verified by DNA sequencing. eENTH may comprise the following sequence:
E. coli BL21 RIL codon plus (Stratagene) cells were used for protein expression. Cells were grown in Luria broth media containing 100 μg/ml of ampicillin at 37° C. 0.1 mM of Isopropyl β-D-1-thiogalactopyranoside was added to induce over-expression of recombinant proteins when the OD600 reached 0.5-0.8 and cells were grown for additional 6 to 10 hours at 25° C. Cells were harvested by centrifugation and cell pellets were resuspended in 50 mM Tris-HCl buffer (pH 7.4) containing 160 mM KCl, 1 mM phenylmethanesulphonylfluoride, and 5 mM of dithiothreitol (DTT). Cells were lysed by sonication and the lysate was collected by centrifugation at 4° C. The GST-affinity resin (GenScript) for GST-tagged proteins or nickel-nitrilotriacetic acid resin (Qiagen, Valencia, Calif.) for His6-tagged proteins was added into the cell lysate and the mixture was gently shaken for 30 minutes at 4° C. The mixture was applied to a column and the column was washed once with 50 mM Tris-HCl buffer (pH 7.4) containing 160 mM KCl and 5 mM of DTT to reduce thiol group, and washed several times with the same buffer without DTT to remove DTT. For DAN labeling, 100 μg of acrylodan was added to the column at this stage and incubated 16 hours at 4° C. The excess acrylodan was removed by washing the column with the buffer several times. Thrombin (Invitrogen) was added to column to remove the GST tag and the mixture was incubated at 4° C. for 10 hours. The labeled protein was eluted from the column by and the collected fractions were applied to ion exchange column. Purity and the concentration of the recombinant proteins were determined by sodium dodecylsulfate-polyacrylamide gel electrophoresis and bicinchoninic acid assay, respectively. The DAN labeling yield of eENTH, which was calculated as the molar ratio of DAN (determined spectrophotometrically at 391 nm using its extinction coefficient of 20,000 cm^−1 M^−1) to protein, was typically 60-70%.
LUVs were prepared by extrusion using a 100 nm-pore membrane. GUVs were prepared by electroformation. […]

[3] = tested on: epsin 1 ENTH domain (SEQ ID NO: 1) variant C96A/S4W (eENTH; SEQ ID NO: 2); experiment: SPR equilibrium binding of epsin1 ENTH C96A/S4W (eENTH) to phosphoinositide-containing LUVs; conditions: S4W mutation, Table 1
Text: as §1
as §2, with “latter. […]” for “latter.”
E. coli BL21 RIL codon plus (Stratagene) cells were used for protein expression. […] Purity and the concentration of the recombinant proteins were determined by sodium dodecylsulfate-polyacrylamide gel electrophoresis and bicinchoninic acid assay, respectively. The DAN labeling yield of eENTH, which was calculated as the molar ratio of DAN (determined spectrophotometrically at 391 nm using its extinction coefficient of 20,000 cm^−1 M^−1) to protein, was typically 60-70%. […]

- Kd for PtdIns(4,5)P2 (F450/F520 ratiometric analysis) ([1]; F450/F520 versus [PtdIns(4,5)P2], LUVs): 1.2+/−0.2 mol %
- Kd for PtdIns(4,5)P2 (F450 analysis) ([1]; F450 versus [PtdIns(4,5)P2], 500 nM DAN-eENTH, LUVs): 1.2+/−0.2 mol %
- Kd ([1]; F450 versus [PtdIns(4,5)P2], assumes only half of total lipids available to the sensor, read-out: Kd for PtdIns(4,5)P2 (F450 analysis, converted)): 60 nM
- Kd ([2]; SPR, POPC/POPS/PtdIns(4,5)P2 (77:20:3) LUVs, 20 mM Tris-HCl pH 7.4, 0.16 M KCl, read-out: Kd for PtdIns(4,5)P2): 4 nM
- affinity for PtdIns(4,5)P2-containing vesicles relative to eENTH ([2]; higher than eENTH): about 3 fold
- affinity for PtdIns(4,5)P2-containing vesicles relative to wild type ([2]; higher than the wild type): 12 fold
- enhancement of overall affinity for PtdIns(4,5)P2-containing membranes [3]: ca. 4 fold
Compound: CCCCCCCCCCCCCCCC(=O)OC[C@H](COP(=O)(O)O[C@@H]1[C@H](O)[C@H](O)[C@@H](OP(=O)(O)O)[C@H](OP(=O)(O)O)[C@H]1O)OC(=O)CCCCCCCCCCCCCCC [PtdIns(4,5)P2, phosphatidylinositol-4,5-bisphosphate]
